Measurements taken from US12281363B2, “Methods for detecting antiviral-drug resistant virus” (Secretary of State for Health and Social Care, priority 2018, dated 2025).
Where two headings read alike, the source gives them in different places.

Tested on: HSV-1
Experiment: Plaque reduction assay, HSV-1 clinical isolates on Vero cells
Format: cell-based
Settings: Human alphaherpesvirus 1, Vero
Source text: Viral isolates were used to infect a sub-confluent monolayer of Vero cells at a concentration of 75 or 50 plaque forming units (PFU) per well for HSV-1 and HSV-2, respectively. […] CMC medium typically used to create a semisolid interface and prevents indiscrimate viral spreading. Other materials (e.g. agar) may also be used to create this interface.
Cells were fixed with 10% formalin and stained with crystal violet before enumeration of the plaques (microscopic observation or use of fluorescent antibodies for detection is also suitable). The data obtained from these experiments were then expressed as percent inhibition of viral infectivity relative to the no drug control.
Definitions of phenotypic drug susceptibility classification as sensitive or resistant were as follows: ACV, <3 μM or >40 μM; PCV, <10 μM or >40 μM; CDV, <24 μM or >30 μM; FOS, <250 μM or >400 μM; and ACV, <6.5 μM or >40 μM; PCV, <38 μM or >40 μM; FOS, <250 μM or >400 μM for HSV-1 and HSV-2, respectively. Any IC50 values falling in between these sensitive and resistant cut-offs were reported as intermediate resistance.
The phenotype (i.e. reactivity to a drug) of the virus was characterised by the plaque reduction assay as described above.

Molecule Nc1ccn(C[C@@H](CO)OCP(=O)(O)O)c(=O)n1 [Cidofovir, cidofovir] has an IC50 (isolate HPG032, HSV-1 TK 183* (437_438insA), read-out: Drug susceptibility Cidofovir (CDV)) of less than 24 µM, an IC50 (isolate HPG033, HSV-1 TK I358L (1072A>C), also TK T287M, read-out: Drug susceptibility (IC50 value)) of 15 µM and an IC50 (isolate HPG033, HSV-1 TK I358L (1072A>C), also TK T287M, read-out: Drug susceptibility Cidofovir (CDV)) of less than 24 µM. For the same molecule, the IC50 (isolate HPG033, HSV-1 pol N1046T (3137A>C), also TK T287M, pol A1169T, read-out: Drug susceptibility (IC50 value)) was 15 µM, the IC50 (isolate HPG033, HSV-1 pol N1046T (3137A>C), also TK T287M, pol A1169T, read-out: Drug susceptibility Cidofovir (CDV)) was less than 24 µM and the IC50 (isolate HPG035, HSV-1 pol S239L (716C>T), also pol S724N, read-out: Drug susceptibility (IC50 value)) was 39.6 µM. The IC50 (isolate HPG035, HSV-1 pol S239L (716C>T), also pol S724N, read-out: Drug susceptibility Cidofovir (CDV)) was greater than 30 µM, the IC50 (isolate HPG037, HSV-1 TK L69M (205>A), also TK Y239H, read-out: Drug susceptibility Cidofovir (CDV)) was less than 24 µM and the IC50 (isolate HPG037, HSV-1 TK R256W (766C>T), read-out: Drug susceptibility (IC50 value)) was 4.39 µM. For the same molecule, the IC50 (isolate HPG037, HSV-1 TK R256W (766C>T), read-out: Drug susceptibility Cidofovir (CDV)) was less than 24 µM, the IC50 (isolate HPG037, HSV-1 TK Y239H (715T>C), read-out: Drug susceptibility (IC50 value)) was 4.39 µM and the IC50 (isolate HPG037, HSV-1 TK Y239H (715T>C), read-out: Drug susceptibility Cidofovir (CDV)) was less than 24 µM. For the same molecule, the IC50 (isolate HPG039, HSV-1 TK 85* or H58fs (169delC, 170delC, 171delC, or 172delC), read-out: Drug susceptibility (IC50 value)) was 2.97 µM, the IC50 (isolate HPG039, HSV-1 TK 85* or H58fs (169delC, 170delC, 171delC, or 172delC), read-out: Drug susceptibility Cidofovir (CDV)) was less than 24 µM and the IC50 (isolate HPG040, HSV-1 pol S911N (2732G>A), also TK deletion (C) nt 896-900, pol A1169T, read-out: Drug susceptibility (IC50 value)) was 11.3 µM. It also gave an IC50 (isolate HPG040, HSV-1 pol S911N (2732G>A), also TK deletion (C) nt 896-900, pol A1169T, read-out: Drug susceptibility Cidofovir (CDV)) of less than 24 µM, an IC50 (isolate HPG041, HSV-1 pol S911N (2732G>A), also pol A1169T, read-out: Drug susceptibility (IC50 value)) of 18 µM and an IC50 (isolate HPG041, HSV-1 pol S911N (2732G>A), also pol A1169T, read-out: Drug susceptibility Cidofovir (CDV)) of less than 24 µM. For the same molecule, the IC50 (isolate HPG042, HSV-1 pol A972V (2915C>T), also TK deletion (C) nt 881-885, pol A1169T, read-out: Drug susceptibility (IC50 value)) was less than 1.56 µM, the IC50 (isolate HPG042, HSV-1 pol A972V (2915C>T), also TK deletion (C) nt 881-885, pol A1169T, read-out: Drug susceptibility Cidofovir (CDV)) was less than 24 µM and the IC50 (isolate HPG042, HSV-1 pol G22R (64G>A), also TK deletion (C) nt 881-885, pol A1169T, read-out: Drug susceptibility (IC50 value)) was less than 1.56 µM. For the same molecule, the IC50 (isolate HPG042, HSV-1 pol G22R (64G>A), also TK deletion (C) nt 881-885, pol A1169T, read-out: Drug susceptibility Cidofovir (CDV)) was less than 24 µM, the IC50 (isolate HPG043, HSV-1 TK 183* (437_438insA), read-out: Drug susceptibility (IC50 value)) was 1.65 µM and the IC50 (isolate HPG043, HSV-1 TK 183* (437_438insA), read-out: Drug susceptibility Cidofovir (CDV)) was less than 24 µM. For the same molecule, the IC50 (isolate HPG045, HSV-1 TK L49R (146T>G), read-out: Drug susceptibility (IC50 value)) was less than 1.56 µM, the IC50 (isolate HPG045, HSV-1 TK L49R (146T>G), read-out: Drug susceptibility Cidofovir (CDV)) was less than 24 µM and the IC50 (isolate HPG045, HSV-1 pol L419I (1255C>A), also TK L49R, pol A1169T, read-out: Drug susceptibility (IC50 value)) was less than 1.56 µM. It also gave an IC50 (isolate HPG045, HSV-1 pol L419I (1255C>A), also TK L49R, pol A1169T, read-out: Drug susceptibility Cidofovir (CDV)) of less than 24 µM, an IC50 (isolate HPG046, HSV-1 TK I166N (497T>A), read-out: Drug susceptibility (IC50 value)) of 2.1 µM and an IC50 (isolate HPG046, HSV-1 TK I166N (497T>A), read-out: Drug susceptibility Cidofovir (CDV)) of less than 24 µM. The IC50 (isolate HPG047, HSV-1 pol E680 (2039A>C), also TK deletion (C) nt 548-553, pol A1169T, read-out: Drug susceptibility Cidofovir (CDV)) was less than 24 µM, the IC50 (isolate HPG051, HSV-1 pol D83A (248A>C), also TK R176stop, read-out: Drug susceptibility (IC50 value)) was 4.94 µM and the IC50 (isolate HPG051, HSV-1 pol D83A (248A>C), also TK R176stop, read-out: Drug susceptibility Cidofovir (CDV)) was less than 24 µM. The IC50 (isolate HPG052, HSV-1 TK Q34* (100C>T), read-out: Drug susceptibility (IC50 value)) was 4.77 µM, the IC50 (isolate HPG052, HSV-1 TK Q34* (100C>T), read-out: Drug susceptibility Cidofovir (CDV)) was less than 24 µM and the IC50 (isolate HPG053, HSV-1 pol L802R + A834S (2405T>G, 2500G>T), also TK R176W, read-out: Drug susceptibility Cidofovir (CDV)) was less than 24 µM. For the same molecule, the IC50 (isolate HPG053, HSV-1 pol S911N (2732G>A), also TK R176W, pol A1169T, read-out: Drug susceptibility (IC50 value)) was 7.72 µM, the IC50 (isolate HPG053, HSV-1 pol S911N (2732G>A), also TK R176W, pol A1169T, read-out: Drug susceptibility Cidofovir (CDV)) was less than 24 µM and the IC50 (isolate HPG054, HSV-1 pol E992K (2974G>A), also TK insert (G) nt 430-436, pol A1169T, read-out: Drug susceptibility (IC50 value)) was 3.85 µM. For the same molecule, the IC50 (isolate HPG054, HSV-1 pol E992K (2974G>A), also TK insert (G) nt 430-436, pol A1169T, read-out: Drug susceptibility Cidofovir (CDV)) was less than 24 µM, the IC50 (isolate HPG055, HSV-1 TK V204G (611T>G), also pol A1169AT, read-out: Drug susceptibility (IC50 value)) was less than 1.56 µM and the IC50 (isolate HPG055, HSV-1 TK V204G (611T>G), also pol A1169AT, read-out: Drug susceptibility Cidofovir (CDV)) was less than 24 µM. For the same molecule, the IC50 (read-out: Drug susceptibility (IC50 value), isolate HPG005, HSV-1 TK A192T (574G>A)) was 2.21 µM, the IC50 (read-out: Drug susceptibility (IC50 value), isolate HPG006, HSV-1 pol G121S (361G>A), also a TK resistance mutation (footnote a)) was 6.14 µM and the IC50 (read-out: Drug susceptibility (IC50 value), isolate HPG012, HSV-1 pol G985E (2954G>A), also TK A93V) was 2.84 µM. For the same molecule, the IC50 (read-out: Drug susceptibility (IC50 value), isolate HPG016, HSV-1 pol A1169T (3505G>A)) was 16.5 µM, the IC50 (read-out: Drug susceptibility (IC50 value), isolate HPG037, HSV-1 TK L69M (205>A), also TK Y239H) was 4.39 µM and the IC50 (read-out: Drug susceptibility (IC50 value), isolate HPG042, HSV-1 TK frameshift (881delC to 885delC)) was less than 1.56 µM. For the same molecule, the IC50 (read-out: Drug susceptibility (IC50 value), isolate HPG047, HSV-1 pol E680 (2039A>C), also TK deletion (C) nt 548-553, pol A1169T) was 2.88 µM, the IC50 (read-out: Drug susceptibility Cidofovir (CDV), isolate HPG005, HSV-1 TK A192T (574G>A)) was less than 24 µM and the IC50 (read-out: Drug susceptibility Cidofovir (CDV), isolate HPG006, HSV-1 pol G121S (361G>A), also a TK resistance mutation (footnote a)) was less than 24 µM. The IC50 (read-out: Drug susceptibility Cidofovir (CDV), isolate HPG012, HSV-1 pol G985E (2954G>A), also TK A93V) was less than 24 µM, the IC50 (read-out: Drug susceptibility Cidofovir (CDV), isolate HPG016, HSV-1 pol A1169T (3505G>A)) was less than 24 µM and the IC50 (read-out: Drug susceptibility Cidofovir (CDV), isolate HPG042, HSV-1 TK frameshift (881delC to 885delC)) was less than 24 µM.
